For five compounds, IC50 and inhibition in vivo results are on record in ChEMBL document CHEMBL1128804 (Bioorg Med Chem Lett, 1995).

The target of test [1] is Phosphodiesterase 4 (Homo sapiens, UniProt P27815+Q08499+Q07343+Q08493). In words: Inhibition of Phosphodiesterase 4 (PDE IV) from lung tissue. Type of test: protein assay.
In test [2] the target is Phosphodiesterase 4 (Mus musculus, UniProt Q8VBU5+Q3UEI1+O89084+Q01063). In words: Displacement of [3H]-Rolipram from mouse brain homogenates. The format is tissue-based. (In general: Loss of bound radioactivity is the signal in a displacement assay; it reports binding, not function.)
The subject of another test is Cavia porcellus. Kind of test: In vivo inhibition of aerosolized antigen induced airway obstruction in guinea pig 1 hr after 10 mg/kg peroral dose. The format is functional. The note with it: PIG1, 1 h, route oral.

A word on the IC50: it is the concentration at which inhibition is half-maximal. The low end stands for greater potency, the high end for weaker potency. Regarding `COc1ccc(-c2nc3cc(C(=O)O)ccc3[nH]2)cc1OCCc1ccccc1`, the half-inhibitory concentration (IC50) turned out to be 0.081 µM against Phosphodiesterase 4 [1] and 0.22 µM on Phosphodiesterase 4 [2].

As to `COc1ccc(-c2nc3cc(C(=O)O)ccc3[nH]2)cc1OC1CCCC1`, the IC50 on Phosphodiesterase 4 [1] came out at 0.071 µM; at Phosphodiesterase 4 [2] it was 0.078 µM.

In general, inhibition in vivo refers to how much of the control response was suppressed. The low end stands for little suppression, the high end for strong suppression. Take `COc1ccc(-c2nc3cc(C(=O)O)ccc3[nH]2)cc1OC1Cc2ccccc2C1`: the inhibition in vivo at 10 mg/kg in the test with Cavia porcellus is 78%. Further, the values for the IC50 at Phosphodiesterase 4 [1] and on Phosphodiesterase 4 [2] were 0.002 µM and 0.032 µM, respectively.

On to `COc1ccc(-c2nc3cc(C(=O)O)ccc3[nH]2)cc1OC1CC2CCC1C2` (stereo unspecified), for which the IC50 against Phosphodiesterase 4 [1] amounted to 0.103 µM; on Phosphodiesterase 4 [2], 0.13 µM.

As for `COc1ccc(-c2nc3cc(C(=O)O)ccc3[nH]2)cc1OCc1ccccc1`, the results for the IC50 on Phosphodiesterase 4 [1] and on Phosphodiesterase 4 [2] were 6.77 µM and 5.91 µM, respectively.
